# Data taken from patent US20260007758A1, “SO[…]-2 RECEPTOR (SST2R) NON-PEPTIDE DRUG CONJUGATES AND USES THEREOF” (Crinetics Pharmaceuticals, Inc., priority 2024, published 2026).
# Experiments:
# Format in all cases: cell-based
# [1] = target: T1, human somatostatin receptor subtype 2 (Homo sapiens, UniProt P30874); assay: Functional assay for SSTR2 agonists (HTRF cAMP); conditions: CHO-K1 cells stably expressing human SST2; NKH477-stimulated cAMP; 20 min at 37 C; read-out: hSST2 cAMP Avg EC50
# T1 construct: expressed in transfected cells
# How it was run: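 CHO-K1 cells stably expressing human SSTR2 treated with compound (typically 0-10,000 nM final) for 20 min at 37 °C. Lysate cAMP measured by HTRF (665/620 nm ratio), converted via standard curve; EC50 from cAMP vs concentration.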
# [2] = target: T2, SST2 (Homo sapiens, UniProt P30874); assay: PathHunter CHO-K1 SST2 Internalization Assay; conditions: PathHunter CHO-K1 SST2 cells; 90 min at 37 C; luminescence; read-out: Internalization EC50
# T2 construct: host or cells: PathHunter CHO-K1 SST2 cells
# How it was run: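 CHO-K1 cells expressing human SST2, 2500 cells/well, grown 48 h, then exposed 90 min at 37 C to 11-point 1:3 NDC dilutions (final top 10 uM). Beta-Glo luminescence after 60 min at room temperature; four-parameter IC50, duplicate mean, background-corrected.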
# [3] = tested on: NCI-H524 human small cell lung cancer cells; assay: H524 assay: inhibition of cell proliferation (CellTiter Glo); conditions: 2 h treatment, washout, additional 70 h incubation
# How it was run: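 NCI-H524 cells were exposed for 2 h to NDC in an 11-point two-fold series starting at 1 uM. The drug was then washed out and cells grew a further 70 h. CellTiter Glo luminescence gave % inhibition versus untreated control, and IC50 came from a four-parameter nonlinear regression.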
# T1 sequence (P30874 whole entry): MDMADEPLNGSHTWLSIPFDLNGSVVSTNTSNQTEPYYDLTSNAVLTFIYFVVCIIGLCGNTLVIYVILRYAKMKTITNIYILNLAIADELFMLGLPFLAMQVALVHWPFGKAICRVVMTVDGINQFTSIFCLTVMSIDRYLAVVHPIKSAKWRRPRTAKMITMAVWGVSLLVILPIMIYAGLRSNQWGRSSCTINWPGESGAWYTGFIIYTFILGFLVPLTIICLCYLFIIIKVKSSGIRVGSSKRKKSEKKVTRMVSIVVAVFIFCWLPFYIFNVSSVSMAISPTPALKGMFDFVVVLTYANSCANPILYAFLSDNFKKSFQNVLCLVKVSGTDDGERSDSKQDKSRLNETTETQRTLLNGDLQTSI
# T2 sequence (P30874 whole entry): as above
Compound,EC50 [1] [nM],EC50 [2] [nM],EC50 [3] [nM]
CC[C@H](C)[C@@H]([C@@H](CC(=O)N1CCC[C@H]1[C@H](OC)[C@@H](C)C(=O)N[C@H](C)[C@@H](O)c1ccccc1)OC)N(C)C(=O)[C@@H](NC(=O)[C@H](C(C)C)N(C)C(=O)OCc1ccc(NC(=O)[C@H](C)NC(=O)[C@@H](NC(=O)[C@@H](CS(=O)(=O)O)NC(=O)CCOCCC(=O)NCCNc2ncc(-c3cc(C)cc(F)c3)c(N3CCC(N)CC3)c2-c2nc3ccc(Cl)cc3[nH]2)C(C)C)cc1C(=O)N1CC(C(=O)O)C1)C(C)C [Compound 78],0.22,8.7,350
CC[C@H](C)[C@@H]([C@@H](CC(=O)N1CCC[C@H]1[C@H](OC)[C@@H](C)C(=O)N[C@H](C)[C@@H](O)c1ccccc1)OC)N(C)C(=O)[C@@H](NC(=O)[C@H](C(C)C)N(C)C(=O)OCc1ccc(NC(=O)[C@H](CCCNC(N)=O)NC(=O)[C@@H](NC(=O)[C@H](CCC(=O)O)NC(=O)CCOCCC(=O)NCCNc2ncc(-c3cc(C)cc(F)c3)c(N3CCC(N)CC3)c2-c2nc3cc(F)cc(OC)c3[nH]2)C(C)C)cc1C(=O)NCCN)C(C)C [Compound 79],0.12,5.1,7.7
CC[C@H](C)[C@@H]([C@@H](CC(=O)N1CCC[C@H]1[C@H](OC)[C@@H](C)C(=O)N[C@H](C)[C@@H](O)c1ccccc1)OC)N(C)C(=O)[C@@H](NC(=O)[C@H](C(C)C)N(C)C(=O)OCc1ccc(NC(=O)[C@H](CCCNC(N)=O)NC(=O)[C@@H](NC(=O)[C@H](CCC(=O)O)NC(=O)CCOCCC(=O)NCCNc2ncc(-c3cc(C)cc(F)c3)c(N3CC[C@H]4NCCC[C@@H]4C3)c2-c2nc3ccc(Cl)cc3[nH]2)C(C)C)cc1C(=O)NCCN)C(C)C [Compound 80],180,920,540
CC[C@H](C)[C@@H]([C@@H](CC(=O)N1CCC[C@H]1[C@H](OC)[C@@H](C)C(=O)N[C@H](C)[C@@H](O)c1ccccc1)OC)N(C)C(=O)[C@@H](NC(=O)[C@H](C(C)C)N(C)C(=O)OCc1ccc(NC(=O)[C@H](CCCNC(N)=O)NC(=O)[C@@H](NC(=O)C2(C(=O)NCCOCCC(=O)NCCNc3ncc(-c4cc(C)cc(F)c4)c(N4CCC(N)CC4)c3-c3nc4ccc(Cl)cc4[nH]3)CCC2)C(C)C)cc1C(=O)NCCN)C(C)C [Compound 81],0.094,10,2
CC[C@H](C)[C@@H]([C@@H](CC(=O)N1CCC[C@H]1[C@H](OC)[C@@H](C)C(=O)N[C@H](C)[C@@H](O)c1ccccc1)OC)N(C)C(=O)[C@@H](NC(=O)[C@H](C(C)C)N(C)C(=O)OCc1ccc(NC(=O)[C@H](C)NC(=O)[C@@H](NC(=O)C2(C(=O)NCCOCCC(=O)NCCNc3ncc(-c4cc(C)cc(F)c4)c(N4CCC(N)CC4)c3-c3nc4ccc(Cl)cc4[nH]3)CCC2)C(C)C)cc1C(=O)NCCN)C(C)C [Compound 82],0.26,13,6.6
CC[C@H](C)[C@@H]([C@@H](CC(=O)N1CCC[C@H]1[C@H](OC)[C@@H](C)C(=O)N[C@H](C)[C@@H](O)c1ccccc1)OC)N(C)C(=O)[C@@H](NC(=O)[C@H](C(C)C)N(C)C(=O)OCc1ccc(NC(=O)[C@H](CCCNC(N)=O)NC(=O)[C@@H](NC(=O)CCOCCOCCC(=O)NCCNc2ncc(-c3cc(C)cc(F)c3)c(N3CCC(N)CC3)c2-c2nc3ccc(Cl)cc3[nH]2)C(C)C)cc1C(=O)NCCNC(=O)CCCCCCCCCCC(=O)O)C(C)C [Compound 83],0.53,7,310
CC[C@H](C)[C@@H]([C@@H](CC(=O)N1CCC[C@H]1[C@H](OC)[C@@H](C)C(=O)N[C@H](C)[C@@H](O)c1ccccc1)OC)N(C)C(=O)[C@@H](NC(=O)[C@H](C(C)C)N(C)C(=O)OCc1ccc(NC(=O)[C@H](CCCNC(N)=O)NC(=O)[C@@H](NC(=O)[C@H](CCc2nnn[nH]2)NC(=O)CCOCCC(=O)NCCNc2ncc(-c3cc(C)cc(F)c3)c(N3CCC(N)CC3)c2-c2nc3ccc(Cl)cc3[nH]2)C(C)C)cc1C(=O)NCCN)C(C)C [Compound 84],0.28,3.8,580
CC[C@H](C)[C@@H]([C@@H](CC(=O)N1CCC[C@H]1[C@H](OC)[C@@H](C)C(=O)N[C@H](C)[C@@H](O)c1ccccc1)OC)N(C)C(=O)[C@@H](NC(=O)[C@H](C(C)C)N(C)C(=O)OCc1ccc(NC(=O)[C@H](CCCNC(N)=O)NC(=O)[C@@H](NC(=O)[C@H](Cc2c[nH]c3ccccc23)NC(=O)CCOCCC(=O)NCCNc2ncc(-c3cc(C)cc(F)c3)c(N3CCC(N)CC3)c2-c2nc3ccc(Cl)cc3[nH]2)C(C)C)cc1C(=O)NCCN)C(C)C [Compound 85],0.72,3.6,73
CC[C@H](C)[C@@H]([C@@H](CC(=O)N1CCC[C@H]1[C@H](OC)[C@@H](C)C(=O)N[C@H](C)[C@@H](O)c1ccccc1)OC)N(C)C(=O)[C@@H](NC(=O)[C@H](C(C)C)N(C)C(=O)OCc1ccc(NC(=O)[C@H](CCCNC(N)=O)NC(=O)[C@@H](NC(=O)CCOCCOCCOCCOCCC(=O)NCCNc2ncc(-c3cc(C)cc(F)c3)c(N3CCC(N)CC3)c2-c2nc3ccc(Cl)cc3[nH]2)C(C)C)cc1C(=O)NCC(=O)O)C(C)C [Compound 86],0.068,4.1,1000
CC[C@H](C)[C@@H]([C@@H](CC(=O)N1CCC[C@H]1[C@H](OC)[C@@H](C)C(=O)N[C@H](C)[C@@H](O)c1ccccc1)OC)N(C)C(=O)[C@@H](NC(=O)[C@H](C(C)C)N(C)C(=O)OCc1ccc(NC(=O)[C@H](CCCNC(N)=O)NC(=O)[C@@H](NC(=O)CCOCCC(=O)NCCNc2ncc(-c3cc(C)cc(F)c3)c(N3CCC(N)CC3)c2-c2nc3ccc(Cl)cc3[nH]2)C(C)C)cc1C(=O)NOC)C(C)C [Compound 87],0.1,4.6,600
CC[C@H](C)[C@@H]([C@@H](CC(=O)N1CCC[C@H]1[C@H](OC)[C@@H](C)C(=O)N[C@H](C)[C@@H](O)c1ccccc1)OC)N(C)C(=O)[C@@H](NC(=O)[C@H](C(C)C)N(C)C(=O)OCc1ccc(NC(=O)[C@H](CCCNC(N)=O)NC(=O)[C@@H](NC(=O)CCOCCC(=O)NCCNc2ncc(-c3cc(C)cc(F)c3)c(N3CCC(N)CC3)c2-c2nc3ccc(Cl)cc3[nH]2)C(C)C)cc1C(=O)NOCCN)C(C)C [Compound 88],0.25,3.1,84
CC[C@H](C)[C@@H]([C@@H](CC(=O)N1CCC[C@H]1[C@H](OC)[C@@H](C)C(=O)N[C@H](C)[C@@H](O)c1ccccc1)OC)N(C)C(=O)[C@@H](NC(=O)[C@H](C(C)C)N(C)C(=O)OCc1ccc(NC(=O)[C@H](CCCNC(N)=O)NC(=O)[C@@H](NC(=O)[C@H](CCC(=O)O)NC(=O)CCOCCC(=O)NCCNc2ncc(-c3cc(C)cc(F)c3)c(N3CCC(N)CC3)c2-c2nc3ccc(Cl)cc3[nH]2)C(C)C)cc1C(=O)NOC)C(C)C [Compound 89],0.57,3.6,1100
CC[C@H](C)[C@@H]([C@@H](CC(=O)N1CCC[C@H]1[C@H](OC)[C@@H](C)C(=O)N[C@H](C)[C@@H](O)c1ccccc1)OC)N(C)C(=O)[C@@H](NC(=O)[C@H](C(C)C)N(C)C(=O)OCc1ccc(NC(=O)[C@H](CCCNC(N)=O)NC(=O)[C@@H](NC(=O)[C@H](CCC(=O)O)NC(=O)CCOCCC(=O)NCCNc2ncc(-c3cc(C)cc(F)c3)c(N3CCC(N)CC3)c2-c2nc3ccc(Cl)cc3[nH]2)C(C)C)cc1C(=O)NOCCN)C(C)C [Compound 90],0.66,5.5,480
